According to PMC12516379, “Rotamer-Controlled Self-Immolative Linkers Enable Tunable Release of Neurosteroid Oxime Prodrugs” (ACS Medicinal Chemistry Letters, 2025):
Read-outs that look alike come from different tables or passages of the source.

Assay: Plasma stability assay at 37 °C via LC-MS/MS, human plasma;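 further: prodrugs at 3 µM incubated in human plasma at 37 °C, intact prodrug quantified by LC-MS/MS over time, values are means of duplicate runs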
Assay type: in vitro ADME
Details: for half-life at 3 µM: human, plasma
Method: To address this, prodrug stability was further evaluated in human plasma at 37 °C using liquid chromatography–tandem mass spectrometry (LC-MS/MS). For direct comparison, a parallel screen was conducted in PBS under identical conditions (Table ). To prevent premature degradation prior to LC-MS/MS analysis, acetonitrile containing formic acid was used as a quenching solution to acidify and stabilize the prodrugs in vials. […] This limitation in detection, along with the need for a more uniform and broadly applicable assessment across all compounds, prompted us to monitor the formation of the parent oxime as an alternative readout.
Stability experiments in human plasma and PBS were performed via liquid chromatography-tandem mass spectrometry (LC-MS/MS) to determine and compare rate of cleavage of progesterone prodrugs as well as selected allopregnanolone prodrugs (3 µM) when incubated at 37 °C. All experiments were performed in duplicate and results are presented as the average of two experimental replicates.

CNCCN(C)C(=O)O/N=C(\C)[C@H]1CC[C@H]2[C@@H]3CCC4=CC(=O)CC[C@]4(C)[C@H]3CC[C@]12C [20a]
t1/2 in human plasma at 37 °C (Tables S10-S13, S18) (3 µM, LC-MS/MS): 2.45 h | Plasma, 37 °C %rem. at 2h (Table S23) (2 h): 73% | half-life at 3 µM (3 µM, LC-MS/MS, read-out: t1/2 in human plasma at 37 °C (Tables S10-S13, S18) (converted)): 188 min | half-life at 3 µM (LC-MS/MS, read-out: Half-life (t½) Plasma 37°C (converted)): 149 min | half-life at 3 µM (read-out: Plasma, 37 °C t½ (Table S23) (converted)): 147 min
